How the values were obtained:
[1] = PAMPA membrane permeability assay; format: in vitro ADME; settings: pH 7.4, GIT lipid, 4 hours incubation
Procedure: The PAMPA assay (pION, Inc., Woburn MA) was used to determine the ability of compounds of the invention to cross an artificial lipid membrane by passive diffusion. Test compounds were dissolved in DMSO (10 mM) and diluted 200-fold in buffer (pION Inc., pH 7.4) to provide 50 μM stock solutions. Buffer (150 μL) was added to a UV blank plate and stock solutions (150 μL) were transferred to a UV reference plate. The blank and reference spectrum were read using a spectrophotometer. Stock solutions (200 μL) were added to the donor plate of the PAMPA sandwich plate and an accept plate painted with GIT lipid (pION Inc, 5 μL) was placed on top. Buffer (200 μL) was added to the acceptor plate and the PAMPA sandwich plate was incubated for 4 hours. Aliquots (150 μL) from the acceptor plate were added to a UV plate and read as acceptor spectrum. Aliquots (150 μL) of the donor solutions were added to a UV analysis plate and read as donor spectrum. The permeability coefficient of test compounds was calculated using PAMPA Explorer™ software (version 3.5.0.4) based on the AUC of the reference plate, the donor plate, and the acceptor plate.

NaV1.7 [2] = target: T1, NaV1.7 (Homo sapiens, UniProt Q15858); test: Intracellular (internal block) inhibition of NaV1.7 current, whole cell patch clamp; format: cell-based; settings: compound in internal solution; for inhibition at 1 µM: read-out: Nav 1.7 Intracellular Inhibition
T1 construct: expressed in transfected cells; tetracycline-inducible, kept under hygromycin and blasticidin selection
Procedure: (§1) NaV1.7 was expressed upon induction with tetracycline. Cells were cultured in DMEM containing 10% dialyzed Fetal Bovine Serum (VWR, Radnor, PA), 1% Glutamax (VWR, Radnor, PA), 1% Penicillin-Streptomycin (VWR, Radnor, PA), 100 mg/L Hygromycin (Thermo Fisher Scientific, Waltham, MA and 5 mg/L Blasticidin (Alfa Aesar, Haverhill, MA). Cells were grown and maintained at 37° C. in a humidified environment containing 10% CO2 in air. Cells were detached from the culture flask for passage and harvested using 0.05% Trypsin-EDTA (Thermo Fisher Scientific, Waltham, MA). To induce NaV1.7, cells were induced with tetracycline (0.1-1 μg/mL, IBI Scientific, Peosta, IA) the day before recording and plated onto 24-well plates. Cells were washed with DPBS (VWR, Radnor, PA), trypsinized and then triturated five times in 10 mL of growth media to break apart cell aggregates. For one 24-well plate, 2 mL of cell suspension was mixed with 23 mL of fresh growth media and 0.1-1 μg/mL tetracycline added. 1 ml of mixed media with cells was then added to each well of a 24-well plate, with a 12 mm coverslip already placed in the bottom of the well. Cells were then incubated in 37° C. and 10% CO2 overnight.
The intracellular solution contained the following (in mM) CsCl 135, NaCl 10, EGTA 10, HEPES 10, MgCl2 2, adjusted to pH 7.2 with CsOH. The external solution was a normal Ringer solution containing (in mM) NaCl 155, HEPES 10, glucose 10, KCl 3.5, CaCl2 1.5, MgCl2 1 adjusted to pH 7.4 with NaOH. CsCl is from Alfa Aesar, Haverhill, MA. All other chemicals are from Sigma-Aldrich, St. Louis, MO. In order to test the degree of internal block by test compounds the compounds were dissolved in internal solution at the indicated test concentration. […] In order to test the degree of external block by test compounds the compounds were dissolved in external solution at the indicated test concentration.
18-24 hours after cells were induced with tetracycline, coverslips were placed into a chamber filled with Normal Ringer solution at room temperature and the chamber placed on a microscope. Pipettes were pulled from borosilicate glass on a P97 puller (Sutter Instrument, Novato, CA) and polished with a MF-830 Microforge (Narishige International USA, Inc, Amityville, NY) to have a resistance of 1.5-2.5 MΩ when filled with CsCl internal solution at room temperature. Healthy cells (those that are round and translucent with no visible blemishes) were chosen for seal formation. A seal was formed between the pipette and the cell, and a brief pulse of suction was used to “break in” and establish the whole-cell configuration. The membrane potential was held at −100 mV before the voltage protocol began. Only cells with series resistance between 1.5-5 MΩ were retained for analysis. The voltage protocol was as follows: Cells were held at −100 mV for 12 ms followed by a hyperpolarizing step to −105 mV for 12 ms to monitor the leak. Cells were then stepped back to −100 mV for 40 ms. Cells were then depolarized to −20 mV for 10 ms and then returned to −100 mV for 26 ms.
Once the recording was started, the voltage protocol was run at 30 second intervals for 5 minutes to get a stable baseline. This was followed by four 30-second periods of 5 Hz stimulation of the same voltage protocol separated by 1 minute of rest which was then followed by 0.33 Hz stimulation after the last train. Currents were recorded using PatchMaster software with Heka EPC10 (HEKA Electronics, Lambrecht, Germany). Only cells with inward current amplitudes at −20 m V between 400 pA and 4 nA were accepted. In addition, cells having leak currents greater than 10% of their current amplitudes were discarded.
(§2) The data was plotted using the Patchmaster software (HEKA Electronics, Lambrecht, Germany) and analyzed by plotting the minimum current during the voltage step to −20 m V (peak inward current) as a function of time. […]

NaV1.7 [3] = target: T1, NaV1.7; test: Extracellular (external block) inhibition of NaV1.7 current, whole cell patch clamp; format: cell-based; settings: compound in external solution
Procedure: as §1, with “For one 24-well plate, 2 mL of cell suspension was mixed with 23 mL of fresh growth media and 0.1-1 μg/mL tetracycline added. 1 ml of mixed media with cells was then added to each well of a 24-well plate, with a 12 mm coverslip already placed in the bottom of the well. Cells were then incubated in 37° C. and 10% CO2 overnight.” left out
Once the recording was started, the voltage protocol was run at 30 second intervals for 5 minutes to get a stable baseline. […] Currents were recorded using PatchMaster software with Heka EPC10 (HEKA Electronics, Lambrecht, Germany). […]
as §2

T1 sequence (Q15858 whole entry): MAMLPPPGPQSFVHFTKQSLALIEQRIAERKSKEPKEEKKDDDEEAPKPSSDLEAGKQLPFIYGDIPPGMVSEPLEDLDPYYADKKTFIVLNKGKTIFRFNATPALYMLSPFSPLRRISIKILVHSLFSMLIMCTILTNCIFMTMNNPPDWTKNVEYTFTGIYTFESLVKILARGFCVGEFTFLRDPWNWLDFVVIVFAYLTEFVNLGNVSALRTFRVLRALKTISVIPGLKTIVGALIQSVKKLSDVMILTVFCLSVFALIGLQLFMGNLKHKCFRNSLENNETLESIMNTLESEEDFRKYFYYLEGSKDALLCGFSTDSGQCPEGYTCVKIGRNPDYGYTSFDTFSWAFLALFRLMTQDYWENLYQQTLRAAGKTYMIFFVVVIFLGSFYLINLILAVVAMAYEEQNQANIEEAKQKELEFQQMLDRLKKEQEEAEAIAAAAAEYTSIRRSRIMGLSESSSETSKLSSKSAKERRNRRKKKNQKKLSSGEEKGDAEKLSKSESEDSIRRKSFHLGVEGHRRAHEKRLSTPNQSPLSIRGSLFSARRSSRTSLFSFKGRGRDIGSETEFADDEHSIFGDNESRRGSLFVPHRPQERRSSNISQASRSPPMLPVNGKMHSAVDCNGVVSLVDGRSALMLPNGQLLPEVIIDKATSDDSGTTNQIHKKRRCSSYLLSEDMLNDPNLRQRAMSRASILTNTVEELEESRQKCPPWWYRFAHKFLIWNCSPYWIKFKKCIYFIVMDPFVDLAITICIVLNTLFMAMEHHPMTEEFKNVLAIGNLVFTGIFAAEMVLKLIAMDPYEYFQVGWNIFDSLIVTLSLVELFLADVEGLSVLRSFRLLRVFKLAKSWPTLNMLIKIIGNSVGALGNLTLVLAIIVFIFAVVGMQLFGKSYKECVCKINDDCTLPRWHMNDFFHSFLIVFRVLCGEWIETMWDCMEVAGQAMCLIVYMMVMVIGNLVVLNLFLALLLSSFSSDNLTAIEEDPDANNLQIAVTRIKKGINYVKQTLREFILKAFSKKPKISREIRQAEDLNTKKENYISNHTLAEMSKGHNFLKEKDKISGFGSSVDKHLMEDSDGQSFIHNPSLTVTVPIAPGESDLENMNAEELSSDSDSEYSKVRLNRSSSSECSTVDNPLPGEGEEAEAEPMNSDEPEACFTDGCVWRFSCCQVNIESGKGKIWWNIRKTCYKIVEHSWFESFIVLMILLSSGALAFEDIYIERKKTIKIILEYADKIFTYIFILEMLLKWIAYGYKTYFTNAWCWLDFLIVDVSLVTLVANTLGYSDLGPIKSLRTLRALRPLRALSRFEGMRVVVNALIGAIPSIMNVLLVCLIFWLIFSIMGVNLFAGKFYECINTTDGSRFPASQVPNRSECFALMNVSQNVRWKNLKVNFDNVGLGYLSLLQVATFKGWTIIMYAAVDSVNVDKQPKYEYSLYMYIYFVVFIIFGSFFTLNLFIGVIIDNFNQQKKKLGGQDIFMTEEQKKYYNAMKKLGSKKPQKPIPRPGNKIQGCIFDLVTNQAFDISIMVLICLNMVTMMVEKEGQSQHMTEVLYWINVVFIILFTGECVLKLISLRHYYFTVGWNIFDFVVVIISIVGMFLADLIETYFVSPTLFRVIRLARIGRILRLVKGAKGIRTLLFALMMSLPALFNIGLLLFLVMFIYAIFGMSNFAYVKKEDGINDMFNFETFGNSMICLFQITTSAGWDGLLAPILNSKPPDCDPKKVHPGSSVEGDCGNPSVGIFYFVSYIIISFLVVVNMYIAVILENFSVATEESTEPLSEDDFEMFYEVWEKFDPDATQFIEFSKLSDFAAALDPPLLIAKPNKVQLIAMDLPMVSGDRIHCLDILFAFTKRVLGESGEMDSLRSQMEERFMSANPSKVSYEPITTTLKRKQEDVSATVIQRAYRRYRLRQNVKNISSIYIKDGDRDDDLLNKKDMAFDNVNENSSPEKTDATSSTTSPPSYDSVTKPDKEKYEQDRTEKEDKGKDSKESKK

Structure (SMILES)	PAMPA (10^−6 cm/s) [1]	inhibition at 1 µM (NaV1.7 [2]) [%]	inhibition at 3 µM (NaV1.7 [3]; test concentration of 3 μM) [%]	Papp at 4 h, 50 µM ([1]; PAMPA) [nm/s]	inhibition at 3 µM (NaV1.7 [2]; test concentration of 3 μM) [%]	inhibition at 1 µM (NaV1.7 [3]; test concentration of 1 μM) [%]
COC(=O)c1scc(C)c1NC(=O)C[N+]1(Cc2ccccc2)CCCC1.[Br-] [A]	+ (“+” (<0.1 10^−6 cm/s))	40 to 70	–	–	–	–
COC(=O)c1scc(C)c1NC(=O)C[N+]1(Cc2ccccc2)CCCCC1.[Br-] [B]	++ (“++” (0.1-2.0 10^−6 cm/s))	40 to 70	–	–	–	–
CCCOC(=O)c1scc(C)c1NC(=O)C[N+]1(Cc2ccccc2)CCCCCC1.[Br-] [C]	+ (“+” (<0.1 10^−6 cm/s))	> 90	–	–	–	–
COC(=O)c1scc(C)c1NC(=O)C[N+]1(Cc2ccccc2)CCCCCC1.[Br-] [Compound-31, 1-benzyl-1-(2-((2-(methoxycarbonyl)-4-methylthiophen-3-yl)amino)-2-oxoethyl) azepan-1-ium bromide]	++ (“++” (0.1-2.0 10^−6 cm/s))	70 to 90	< 40	4	> 95	–
CCOC(=O)c1scc(C)c1NC(=O)C[N+]1(Cc2ccccc2)CCCCCC1.[Br-] [D]	+ (“+” (<0.1 10^−6 cm/s))	> 90	–	–	–	< 40
Cc1csc(C(=O)OC(C)C)c1NC(=O)C[N+]1(Cc2ccccc2)CCCCCC1.[Br-] [E]	++ (“++” (0.1-2.0 10^−6 cm/s))	70 to 90	–	–	–	–
CC[N+]1(CC(=O)Nc2c(C)csc2C(=O)OC)CCCC(c2ccccc2)C1.[I-] (stereo not shown) [F]	+ (“+” (<0.1 10^−6 cm/s))	70 to 90	–	–	–	–
CCC(C(=O)Nc1c(C)csc1C(=O)OC)[N+]1(Cc2ccccc2)CCCCC1.[Br-] (stereo not shown) [G]	+ (“+” (<0.1 10^−6 cm/s))	40 to 70	–	–	–	–
Cc1csc(C)c1NC(=O)C[N+]1(Cc2ccccc2)CCCCCC1.[Br-] [H]	+ (“+” (<0.1 10^−6 cm/s))	40 to 70	–	–	–	–

Reference: patent US20240277727A1, “CHARGED ION CHANNEL BLOCKERS AND METHODS FOR USE” (Nocion Therapeutics, Inc., priority 2019, published 2024)
